One assay deals with T1, Neutrophil elastase (Homo sapiens, UniProt P08246).
T1 sequence (P08246 whole entry): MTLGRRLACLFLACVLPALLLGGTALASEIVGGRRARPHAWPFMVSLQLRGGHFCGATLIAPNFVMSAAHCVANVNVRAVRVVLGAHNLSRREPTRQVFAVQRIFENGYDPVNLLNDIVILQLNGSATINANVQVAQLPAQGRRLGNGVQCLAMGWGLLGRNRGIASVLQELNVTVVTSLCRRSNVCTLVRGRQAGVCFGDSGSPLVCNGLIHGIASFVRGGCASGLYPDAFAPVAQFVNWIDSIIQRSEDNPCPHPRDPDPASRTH
The experiment in a line: Binding affinity for human leukocyte elastase (HLE); Kreact/Kinact.

The target of assay [1] is T2, Neutrophil elastase (Homo sapiens) (UniProt P08246).
T2 sequence (whole entry): T1 sequence (P08246 whole entry)
Description: Inhibition of human leukocyte elastase (HLE)

The pKi is the Ki on a negative log10 scale, so that one unit is a factor of ten. Read a low pKi as a high Ki.

pKi: −log10 of the molar value.

For `CC(C)c1cccc2c1C(=O)N(COc1cccc(C(=O)OCCN3CCOCC3)c1)S2(=O)=O`, the pKi on Neutrophil elastase is less than 6.00. The molecule `CC(C)c1cccc2c1C(=O)N(COc1cccc(C(=O)NCCN3CCOCC3)c1)S2(=O)=O` gave a negative logarithm of the Ki (pKi) at Neutrophil elastase of less than 7.00. With `CO[C@H]1C(=O)N2C(C(=O)N3CCC[C@H]3C(=O)O)=C(COC(C)=O)CS(=O)(=O)[C@H]12`, the pKi on Neutrophil elastase is 8.66. Besides, the K inact in assay [1] came out at 3700 M⁻¹ s⁻¹.

At Neutrophil elastase, `CC(C)c1cccc2c1C(=O)N(COc1c(Cl)cccc1Cl)S2(=O)=O` showed a negative-log Ki (pKi) of less than 7.00.

These data come from ChEMBL document CHEMBL1128126, “Inhibitors of human leukocyte elastase. 2.1 synthesis and sar of benzisothiazolinylmethyl aryl ethers” (Bioorg Med Chem Lett, 1995).
